Measurements reported in ChEMBL document CHEMBL3351624, “A semi-synthetic derivative of artemisinin, artesunate inhibits prostaglandin E2 production in LPS/IFNγ-activated BV2 microglia” (Bioorg Med Chem, 2014).
Calls of active or inactive are those of the source. No cut-off for these calls is given here.

Columns and labels:
BV-2 [1] = assay: Antiinflammatory activity in mouse BV2 cells assessed as inhibition of LPS/IFNgamma-induced PGE2 production at 2 uM after 24 hrs by enzyme immunoassay; type: functional, cell-based
[2] = Antiinflammatory activity in mouse BV2 cells assessed as LPS/IFNgamma-induced PGE2 production at 4 uM after 24 hrs by enzyme immunoassay; type: functional, BV-2
BV-2 [3] = assay: Antiinflammatory activity in mouse BV2 cells assessed as inhibition of LPS/IFNgamma-induced COX2 expression at 0.5 to 4 uM after 24 hrs by Western blot; type: functional, cell-based
[4] = Antiinflammatory activity in mouse BV2 cells assessed as LPS/IFNgamma-induced COX2 expression at 4 uM after 24 hrs by Western blot; type: functional, BV-2
BV-2 [5] = assay: Antiinflammatory activity in mouse BV2 cells assessed as inhibition of LPS/IFNgamma-induced mPGES1 expression at 0.5 to 4 uM after 24 hrs by Western blot; type: functional, cell-based
BV-2 [6] = assay: Antiinflammatory activity in mouse BV2 cells assessed as inhibition of LPS/IFNgamma-induced IL6 production at 0.5 to 4 uM pre-incubated before LPS/IFNgamma challenge and measured 24 hrs post LPS/IFNgamma challenge by ELISA method; type: functional, cell-based
BV-2 [7] = assay: Antiinflammatory activity in mouse BV2 cells assessed as inhibition of LPS/IFNgamma-induced TNFalpha production at 1 to 4 uM pre-incubated before LPS/IFNgamma challenge and measured 24 hrs post LPS/IFNgamma challenge by ELISA method; type: functional, cell-based
[8] = Toxicity against LPS/IFNgamma-induced mouse BV2 cells assessed as cell viability at 0.5 to 4 uM pre-incubated before LPS/IFNgamma challenge and measured 24 hrs post LPS/IFNgamma challenge by MTT assay; type: cell-based; details: bv-2, 24 h
[9] = target: T1, Nuclear factor NF-kappa-B complex (Homo sapiens) (UniProt Q00653+P19838+Q04206); assay: Inhibition of NFkappaB (unknown origin) expressed in HEK293 cells assessed as reduction in TNFalpha-induced gene transcription at 0.5 to 4 uM pre-incubated for 30 mins prior to stimulation with TNFalpha for 6 hrs by luciferase reporter gene assay; type: cell-based
T1 sequence (P19838 whole entry, looked up): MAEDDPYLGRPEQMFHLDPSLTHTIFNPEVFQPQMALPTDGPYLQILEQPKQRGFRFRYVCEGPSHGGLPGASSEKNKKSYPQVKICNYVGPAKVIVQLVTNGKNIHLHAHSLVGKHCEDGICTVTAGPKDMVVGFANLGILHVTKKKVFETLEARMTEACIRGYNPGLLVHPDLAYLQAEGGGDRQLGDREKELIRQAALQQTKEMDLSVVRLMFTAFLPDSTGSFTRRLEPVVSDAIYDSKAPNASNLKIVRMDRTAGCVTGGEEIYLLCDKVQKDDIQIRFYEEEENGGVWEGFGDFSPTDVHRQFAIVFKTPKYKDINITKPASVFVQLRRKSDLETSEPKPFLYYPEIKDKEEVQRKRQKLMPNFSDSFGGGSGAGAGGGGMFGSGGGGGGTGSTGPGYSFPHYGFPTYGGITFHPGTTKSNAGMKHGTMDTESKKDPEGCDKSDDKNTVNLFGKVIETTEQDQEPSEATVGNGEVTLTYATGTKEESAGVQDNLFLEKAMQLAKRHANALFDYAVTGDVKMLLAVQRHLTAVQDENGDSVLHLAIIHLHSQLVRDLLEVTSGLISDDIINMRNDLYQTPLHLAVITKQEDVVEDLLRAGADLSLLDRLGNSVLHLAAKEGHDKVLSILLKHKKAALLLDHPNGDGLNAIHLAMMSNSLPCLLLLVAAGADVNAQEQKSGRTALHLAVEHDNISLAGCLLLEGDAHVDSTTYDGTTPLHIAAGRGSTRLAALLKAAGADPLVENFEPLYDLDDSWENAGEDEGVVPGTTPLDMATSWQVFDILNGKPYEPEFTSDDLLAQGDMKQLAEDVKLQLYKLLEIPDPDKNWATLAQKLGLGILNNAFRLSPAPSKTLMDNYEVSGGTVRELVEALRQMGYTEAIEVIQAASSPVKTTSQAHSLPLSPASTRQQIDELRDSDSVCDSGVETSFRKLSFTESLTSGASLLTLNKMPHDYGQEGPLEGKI
T1 sequence (Q00653 whole entry, looked up): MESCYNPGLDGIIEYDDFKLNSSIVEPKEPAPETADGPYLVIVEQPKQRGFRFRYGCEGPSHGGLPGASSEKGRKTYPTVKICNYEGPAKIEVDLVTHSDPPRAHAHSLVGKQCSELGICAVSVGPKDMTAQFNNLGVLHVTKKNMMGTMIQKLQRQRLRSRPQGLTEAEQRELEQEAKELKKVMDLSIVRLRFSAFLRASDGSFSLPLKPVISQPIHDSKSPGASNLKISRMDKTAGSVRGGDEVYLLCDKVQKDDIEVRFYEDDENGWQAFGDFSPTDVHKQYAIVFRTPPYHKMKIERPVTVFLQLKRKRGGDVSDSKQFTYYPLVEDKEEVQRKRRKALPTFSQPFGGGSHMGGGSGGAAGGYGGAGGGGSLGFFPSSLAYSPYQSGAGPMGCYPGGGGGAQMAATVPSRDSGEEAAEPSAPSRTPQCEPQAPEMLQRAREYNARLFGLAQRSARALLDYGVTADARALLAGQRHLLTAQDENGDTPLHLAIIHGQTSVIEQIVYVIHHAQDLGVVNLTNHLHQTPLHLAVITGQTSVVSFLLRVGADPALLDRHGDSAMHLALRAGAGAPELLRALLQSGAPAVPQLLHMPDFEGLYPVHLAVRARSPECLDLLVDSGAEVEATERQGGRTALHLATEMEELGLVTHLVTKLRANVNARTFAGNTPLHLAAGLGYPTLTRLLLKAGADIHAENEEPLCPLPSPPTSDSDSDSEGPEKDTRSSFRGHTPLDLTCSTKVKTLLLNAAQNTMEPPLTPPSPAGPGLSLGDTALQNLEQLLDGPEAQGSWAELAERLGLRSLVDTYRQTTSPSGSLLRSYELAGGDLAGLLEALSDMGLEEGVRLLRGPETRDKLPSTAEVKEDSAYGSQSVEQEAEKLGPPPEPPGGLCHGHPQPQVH
T1 sequence (Q04206 whole entry, looked up): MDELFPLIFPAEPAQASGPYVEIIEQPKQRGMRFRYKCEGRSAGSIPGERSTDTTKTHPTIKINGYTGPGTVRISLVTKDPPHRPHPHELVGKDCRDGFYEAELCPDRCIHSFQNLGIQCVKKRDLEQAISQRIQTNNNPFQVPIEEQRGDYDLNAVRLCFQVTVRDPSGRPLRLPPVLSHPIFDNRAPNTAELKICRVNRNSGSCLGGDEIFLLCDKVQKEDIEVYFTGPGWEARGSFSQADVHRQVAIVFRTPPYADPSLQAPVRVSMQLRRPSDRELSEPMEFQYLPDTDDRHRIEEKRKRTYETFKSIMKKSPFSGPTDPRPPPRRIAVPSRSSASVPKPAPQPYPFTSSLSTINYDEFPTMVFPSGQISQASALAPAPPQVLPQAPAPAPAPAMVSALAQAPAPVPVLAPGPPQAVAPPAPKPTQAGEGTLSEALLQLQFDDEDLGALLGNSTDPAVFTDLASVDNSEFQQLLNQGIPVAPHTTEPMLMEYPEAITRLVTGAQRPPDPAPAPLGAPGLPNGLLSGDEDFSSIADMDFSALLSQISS

[10] = target: T1, Nuclear factor NF-kappa-B complex (Homo sapiens); assay: Inhibition of NFkappaB (unknown origin) expressed in HEK293 cells assessed as TNFalpha-induced gene transcription at 4 uM pre-incubated for 30 mins prior to stimulation with TNFalpha for 6 hrs by luciferase reporter gene assay; type: cell-based; set-up: scale not given: the % may be the effect or the level left
BV-2 [11] = assay: Inhibition of IKK in mouse BV2 cells assessed as LPS/IFNgamma-induced IkappaB phosphorylation level at 0.5 uM pre-incubated for 30 mins before LPS/IFNgamma challenge for 1 hr by Western blot method; type: cell-based; set-up: scale not given: the % may be the effect or the level left
BV-2 [12] = assay: Inhibition of IKK in mouse BV2 cells assessed as LPS/IFNgamma-induced IkappaB phosphorylation level at 1 uM pre-incubated for 30 mins before LPS/IFNgamma challenge for 1 hr by Western blot method; type: cell-based; set-up: scale not given: the % may be the effect or the level left
BV-2 [13] = assay: Inhibition of IKK in mouse BV2 cells assessed as LPS/IFNgamma-induced IkappaB phosphorylation level at 2 uM pre-incubated for 30 mins before LPS/IFNgamma challenge for 1 hr by Western blot method; type: cell-based; set-up: scale not given: the % may be the effect or the level left
BV-2 [14] = assay: Inhibition of IKK in mouse BV2 cells assessed as LPS/IFNgamma-induced IkappaB phosphorylation level at 4 uM pre-incubated for 30 mins before LPS/IFNgamma challenge for 1 hr by Western blot method; type: cell-based; set-up: scale not given: the % may be the effect or the level left
BV-2 [15] = assay: Inhibition of IKK in mouse BV2 cells assessed as reduction in LPS/IFNgamma-induced IkappaB degradation at 0.5 to 4 uM pre-incubated for 30 mins before LPS/IFNgamma challenge for 1 hr by Western blot method; type: cell-based
BV-2 [16] = assay: Inhibition of IKK in mouse BV2 cells assessed as reduction in LPS/IFNgamma-induced IkappaB phosphorylation level at 4 uM pre-incubated for 30 mins before LPS/IFNgamma challenge for 1 hr by ELISA method; type: cell-based
BV-2 [17] = assay: Inhibition of IKK in mouse BV2 cells assessed as reduction in LPS/IFNgamma-induced IkappaB degradation at 0.5 to 4 uM pre-incubated for 30 mins before LPS/IFNgamma challenge for 1 hr by ELISA method; type: cell-based
[18] = target: T2, Inhibitor of nuclear factor kappa-B kinase subunit alpha (Mus musculus) (UniProt Q60680); assay: Inhibition of LPS/IFNgamma-induced IKKalpha phosphorylation in mouse BV2 cells at 1 to 4 uM pre-incubated for 30 mins before LPS/IFNgamma challenge for 1 hr by Western blot method; type: cell-based; details: BV-2
T2 sequence (whole entry): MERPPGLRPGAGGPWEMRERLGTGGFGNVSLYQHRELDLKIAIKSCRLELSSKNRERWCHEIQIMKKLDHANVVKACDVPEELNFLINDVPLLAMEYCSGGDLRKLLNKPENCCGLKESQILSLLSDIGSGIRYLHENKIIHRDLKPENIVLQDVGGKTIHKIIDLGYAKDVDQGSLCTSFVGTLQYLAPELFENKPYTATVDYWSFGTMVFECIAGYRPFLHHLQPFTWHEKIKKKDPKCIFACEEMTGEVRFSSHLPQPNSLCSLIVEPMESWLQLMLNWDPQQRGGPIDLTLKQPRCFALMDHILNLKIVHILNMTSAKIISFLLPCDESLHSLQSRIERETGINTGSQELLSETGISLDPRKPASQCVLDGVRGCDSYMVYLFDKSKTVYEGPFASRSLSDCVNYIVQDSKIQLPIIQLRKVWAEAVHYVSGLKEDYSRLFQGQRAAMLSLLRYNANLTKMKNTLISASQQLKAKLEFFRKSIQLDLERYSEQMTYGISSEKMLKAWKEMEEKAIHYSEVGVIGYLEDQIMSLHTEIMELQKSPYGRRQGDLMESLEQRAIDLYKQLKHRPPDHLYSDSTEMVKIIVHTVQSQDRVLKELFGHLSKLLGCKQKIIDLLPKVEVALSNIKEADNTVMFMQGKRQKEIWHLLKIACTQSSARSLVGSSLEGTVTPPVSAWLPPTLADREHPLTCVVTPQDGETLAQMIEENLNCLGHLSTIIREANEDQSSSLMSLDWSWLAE

[19] = target: T3, Inhibitor of nuclear factor kappa-B kinase subunit beta (Mus musculus) (UniProt O88351); assay: Inhibition of LPS/IFNgamma-induced IKKbeta phosphorylation in mouse BV2 cells at 1 to 4 uM pre-incubated for 30 mins before LPS/IFNgamma challenge for 1 hr by Western blot method; type: cell-based; details: BV-2
T3 sequence (whole entry): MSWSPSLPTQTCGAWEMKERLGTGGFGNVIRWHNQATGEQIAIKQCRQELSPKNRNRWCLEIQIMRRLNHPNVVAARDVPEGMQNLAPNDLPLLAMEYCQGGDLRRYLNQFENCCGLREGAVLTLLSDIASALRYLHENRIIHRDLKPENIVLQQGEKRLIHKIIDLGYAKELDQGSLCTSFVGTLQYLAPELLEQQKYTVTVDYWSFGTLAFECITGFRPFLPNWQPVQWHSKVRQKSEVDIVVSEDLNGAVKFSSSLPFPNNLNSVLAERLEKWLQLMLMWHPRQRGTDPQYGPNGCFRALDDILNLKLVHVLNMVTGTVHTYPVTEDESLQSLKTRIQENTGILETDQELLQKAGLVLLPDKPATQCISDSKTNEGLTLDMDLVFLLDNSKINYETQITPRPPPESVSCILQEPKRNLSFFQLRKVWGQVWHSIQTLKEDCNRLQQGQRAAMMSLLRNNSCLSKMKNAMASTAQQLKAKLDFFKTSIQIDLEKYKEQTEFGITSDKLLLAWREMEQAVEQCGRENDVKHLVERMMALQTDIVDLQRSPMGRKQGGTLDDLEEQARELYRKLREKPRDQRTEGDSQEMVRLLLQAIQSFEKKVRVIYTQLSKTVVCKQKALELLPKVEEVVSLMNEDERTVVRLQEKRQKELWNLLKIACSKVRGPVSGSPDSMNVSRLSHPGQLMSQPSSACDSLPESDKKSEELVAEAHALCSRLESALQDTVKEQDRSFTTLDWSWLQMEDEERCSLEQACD

[20] = target: T4, MAP kinase p38 (Mus musculus) (UniProt P47811+O08911+Q9WUI1+Q9Z1B7); assay: Inhibition of LPS/IFNgamma-induced p38 phosphorylation in mouse BV2 cells at 1 to 4 uM pre-incubated for 30 mins before LPS/IFNgamma challenge for 1 hr by Western blot method; type: cell-based; details: BV-2
[21] = target: T4, MAP kinase p38 (Mus musculus); assay: Inhibition of p38 in mouse BV2 cells assessed as reduction in LPS/IFNgamma-induced MAPKAPK2 phosphorylation at 1 to 4 uM pre-incubated for 30 mins before LPS/IFNgamma challenge for 1 hr by Western blot method; type: cell-based; details: BV-2

C[C@H]1[C@H](OC(=O)CCC(=O)O)O[C@@H]2O[C@@]3(C)CC[C@H]4[C@H](C)CC[C@@H]1[C@@]24OO3 [ARTESUNATE]
inhibition (BV-2 [1]): Active
Activity [2]: 38.8%
inhibition (BV-2 [3]): Active
Activity [4]: 55%
inhibition (BV-2 [5]): Active
inhibition (BV-2 [6]): Dose-dependent effect
inhibition (BV-2 [7]): Active
Activity [8]: Non-toxic
inhibition [9]: Active
Activity [10]: 35.4%
Activity (BV-2 [11]): 68.8%
Activity (BV-2 [12]): 56.4%
Activity (BV-2 [13]): 44.3%
Activity (BV-2 [14]): 44.4%
inhibition (BV-2 [15]): Active
inhibition (BV-2 [16]): Active
inhibition (BV-2 [17]): Active
inhibition [18]: Active
inhibition [19]: Active
inhibition [20]: Active
inhibition [21]: Active
